In patent publication US20090118354A1, “Liquid Pharmaceutical Formulations of Docetaxel” (MAYNE PHARMA LIMITED, priority 2005, published 2009):

Assay: Accelerated stability testing: impurity analysis by reverse phase HPLC
Format: physicochemical
Description: Each of the formulations prepared was subjected to accelerated stability testing at 40° C.
The analysis of the impurities was undertaken using reverse phase High Performance Liquid Chromatography (HPLC). HPLC is a technique that is widely used and well known in the art. HPLC can be used to measure the potency of the docetaxel where potency is defined as a percentage of the initial concentration of docetaxel. HPLC can also be used to measure the relative proportions of known and unknown impurities in a docetaxel formulation. Any suitable HPLC method which will separate the impurities may be used.
Impurity levels were calculated by peak area normalisation.

[1] = Example 1, one month, accelerated stability 40° C.
[2] = Example 2, one month, accelerated stability 40° C.
[3] = Example 8, Initial (Docetaxel = docetaxel itself)

Impurity B (RRT = 0.89) (Example 1, initial time point): 0.08 % peak area
Impurity E (RRT = 1.33) (Example 1, initial time point): 0.07 % peak area
Impurity F (RRT = 1.47) (Example 1, initial time point): 0.10 % peak area
Total Impurities (Example 1, initial time point): 0.25 % peak area
Impurity B (RRT = 0.89) [1]: 0.08 % peak area
Impurity E (RRT = 1.33) [1]: 0.07 % peak area
Impurity F (RRT = 1.47) [1]: 0.10 % peak area
Total Impurities [1]: 0.25 % peak area
Impurity E (RRT = 1.34) (Example 2, initial time point): 0.16 % peak area
Impurity F (RRT = 1.48) (Example 2, initial time point): 0.09 % peak area
Total Impurities (Example 2, initial time point): 0.25 % peak area
Impurity E (RRT = 1.34) [2]: 0.16 % peak area
Impurity F (RRT = 1.48) [2]: 0.09 % peak area
Total Impurities [2]: 0.25 % peak area
Impurity RRT 0.866 [3]: 0.05 % peak area
Impurity RRT 1.821 [3]: 0.08 % peak area
Total impurity [3]: 0.13 % peak area
SMILES: CC(=O)O[C@@]12CO[C@@H]1C[C@H](O)[C@@]1(C)C(=O)[C@H](O)C3=C(C)[C@@H](OC(=O)[C@H](O)[C@@H](NC(=O)OC(C)(C)C)c4ccccc4)C[C@@](O)([C@@H](OC(=O)c4ccccc4)[C@H]21)C3(C)C [Docetaxel, (2R,3S)-N-carboxy-3-phenylisoserine,N-tert-butylester, 13 ester with 5β-20-epoxy-1,2α,4,7β,10β,13α-hexahydroxytax-11-en-9-one 4-acetate 2 benzoate]
